SMILES strings stand for the structures.

IC50 data for 66 molecules are collected here from patent US9006450B2 (Boehringer Ingelheim International GmbH, priority 2010, dated 2015).

For the experiment, the target named is T1, human ACC2 (Homo sapiens, UniProt O00763).
T1 construct: made in house; host or cells: insect cells (baculoviral expression system)
T1 sequence (O00763 129-2458 limits assumed): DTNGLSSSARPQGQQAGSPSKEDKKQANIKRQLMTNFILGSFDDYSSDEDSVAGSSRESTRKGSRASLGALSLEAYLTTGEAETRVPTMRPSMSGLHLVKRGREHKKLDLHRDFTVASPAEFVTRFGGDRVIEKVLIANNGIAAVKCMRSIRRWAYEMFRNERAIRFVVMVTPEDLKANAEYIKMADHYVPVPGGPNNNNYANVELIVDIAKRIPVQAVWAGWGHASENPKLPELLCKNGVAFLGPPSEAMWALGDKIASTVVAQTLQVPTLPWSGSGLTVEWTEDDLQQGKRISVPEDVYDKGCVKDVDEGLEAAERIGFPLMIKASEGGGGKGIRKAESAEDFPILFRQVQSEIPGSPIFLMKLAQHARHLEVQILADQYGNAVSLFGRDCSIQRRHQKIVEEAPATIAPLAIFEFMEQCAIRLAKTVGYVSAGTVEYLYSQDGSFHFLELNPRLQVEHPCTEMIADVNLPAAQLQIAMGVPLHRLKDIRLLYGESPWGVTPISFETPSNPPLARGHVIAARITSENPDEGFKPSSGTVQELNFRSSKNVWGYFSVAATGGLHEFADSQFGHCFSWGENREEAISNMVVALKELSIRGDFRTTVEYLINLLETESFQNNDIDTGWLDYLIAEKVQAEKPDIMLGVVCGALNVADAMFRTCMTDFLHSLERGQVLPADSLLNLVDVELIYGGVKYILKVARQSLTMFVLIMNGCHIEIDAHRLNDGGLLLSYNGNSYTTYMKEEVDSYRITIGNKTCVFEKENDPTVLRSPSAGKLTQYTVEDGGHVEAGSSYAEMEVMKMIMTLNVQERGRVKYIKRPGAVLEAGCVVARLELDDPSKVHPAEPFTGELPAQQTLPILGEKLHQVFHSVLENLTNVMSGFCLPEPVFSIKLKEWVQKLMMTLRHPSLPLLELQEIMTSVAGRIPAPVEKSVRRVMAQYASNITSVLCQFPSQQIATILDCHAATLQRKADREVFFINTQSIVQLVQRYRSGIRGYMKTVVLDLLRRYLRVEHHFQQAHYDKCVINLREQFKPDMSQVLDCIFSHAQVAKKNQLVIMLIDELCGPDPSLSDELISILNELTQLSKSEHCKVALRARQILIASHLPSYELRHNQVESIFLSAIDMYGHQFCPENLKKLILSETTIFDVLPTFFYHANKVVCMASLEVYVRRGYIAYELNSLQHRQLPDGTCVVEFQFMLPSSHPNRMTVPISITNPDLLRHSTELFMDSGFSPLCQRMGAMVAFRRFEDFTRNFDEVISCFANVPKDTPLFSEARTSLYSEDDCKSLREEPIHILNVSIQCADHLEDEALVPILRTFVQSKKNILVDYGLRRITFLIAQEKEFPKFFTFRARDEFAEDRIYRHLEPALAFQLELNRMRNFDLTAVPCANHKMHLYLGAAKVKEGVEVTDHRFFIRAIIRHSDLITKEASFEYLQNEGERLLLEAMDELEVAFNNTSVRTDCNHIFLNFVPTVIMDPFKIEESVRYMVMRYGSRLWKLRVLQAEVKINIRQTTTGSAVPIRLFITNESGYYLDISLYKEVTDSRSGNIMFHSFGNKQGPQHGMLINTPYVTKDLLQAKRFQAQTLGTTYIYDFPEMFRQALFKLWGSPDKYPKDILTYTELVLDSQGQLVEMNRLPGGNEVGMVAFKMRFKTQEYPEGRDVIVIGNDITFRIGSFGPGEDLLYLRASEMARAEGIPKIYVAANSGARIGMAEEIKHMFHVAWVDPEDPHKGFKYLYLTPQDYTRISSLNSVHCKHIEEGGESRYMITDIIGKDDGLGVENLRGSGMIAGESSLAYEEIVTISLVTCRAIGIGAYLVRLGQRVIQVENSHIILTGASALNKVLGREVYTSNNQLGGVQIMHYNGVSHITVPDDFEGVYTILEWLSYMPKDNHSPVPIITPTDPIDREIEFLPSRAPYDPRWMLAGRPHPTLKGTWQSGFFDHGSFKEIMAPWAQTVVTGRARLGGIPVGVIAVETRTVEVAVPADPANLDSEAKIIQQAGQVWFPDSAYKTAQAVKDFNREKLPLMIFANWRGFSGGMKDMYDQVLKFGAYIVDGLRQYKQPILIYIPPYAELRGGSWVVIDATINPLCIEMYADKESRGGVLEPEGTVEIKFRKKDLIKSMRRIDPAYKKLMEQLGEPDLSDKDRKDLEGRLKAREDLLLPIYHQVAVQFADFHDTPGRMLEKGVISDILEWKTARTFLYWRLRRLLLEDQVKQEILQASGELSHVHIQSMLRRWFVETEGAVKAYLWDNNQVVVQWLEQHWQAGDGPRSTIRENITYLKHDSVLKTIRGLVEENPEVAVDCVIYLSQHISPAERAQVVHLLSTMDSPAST
Put plainly: ACC2 assay, spectrophotometric 384 well assay (NADH-linked, coupled lactate dehydrogenase/pyruvate kinase). Particulars: ACC2 assay, hACC2 construct lacking 128 N-terminal amino acids, 25° C., 340 nm; read-out: IC50. It counts as biochemical. In a few lines: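 ADP output tracked via pyruvate kinase/lactate dehydrogenase NADH oxidation, slope at 340 nm over 15 min, 25° C, with 500 μM ATP and 200 μM each acetyl-CoA and NADH. Enzyme: insect-cell-expressed human ACC2, N-terminal 128 residues deleted; pH 7.5 Tris with citrate, KHCO3. IC50 from four-parameter regression versus vehicle and no-acetyl-CoA controls.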
In the case of `CC(=O)N[C@@H](C)c1ccc(C2CCN(c3cccc(OCc4ccccc4)c3)CC2)cc1` [Example 9.17], the IC50 is 550 nM.
With `CC(=O)N[C@@H](C)c1ccc(C2CCN(c3cccc(OC(C)c4ccccc4)c3)CC2)cc1` (stereo partly drawn) [Example 9.18] the figure was 150 nM; with `CCCC(C)Oc1ccc(N2CCC(c3ccc([C@H](C)NC(C)=O)cc3)CC2)cc1` (stereo partly drawn) [Example 9.19], 140 nM; with `CC(=O)N[C@@H](C)c1ccc(C2CCN(c3ccc(OCCC(C)C)cc3)CC2)cc1` [Example 9.20], 90 nM.
With `CC(=O)N[C@@H](C)c1ccc(C2CCN(c3ccc(OCC(C)(C)C)cc3)CC2)cc1` [Example 9.21] the figure was 100 nM; with `C=CCOc1ccc(N2CCC(c3ccc([C@H](C)NC(C)=O)cc3)CC2)cc1` [Example 9.22], 160 nM; with `CC(=O)N[C@@H](C)c1ccc(C2CCN(c3ccc(OC4CCCCC4)cc3)CC2)cc1` [Example 9.23], 200 nM.
For `COCCOc1ccc(N2CCC(c3ccc([C@H](C)NC(C)=O)cc3)CC2)cc1` [Example 9.24] the value was 470 nM; for `CC#CCOc1ccc(N2CCC(c3ccc([C@H](C)NC(C)=O)cc3)CC2)cc1` [Example 9.25], 1100 nM.
For the molecule `COCCCOc1ccc(N2CCC(c3ccc([C@H](C)NC(C)=O)cc3)CC2)cc1` [Example 9.26], the IC50 came out at 220 nM.
For `C=CCCOc1ccc(N2CCC(c3ccc([C@H](C)NC(C)=O)cc3)CC2)cc1` [Example 9.27] the value was 70 nM.
For `CC(=O)N[C@@H](C)c1ccc(C2CCN(c3ccc(OCc4cc(C)on4)cc3)CC2)cc1` [Example 9.28] the value was 780 nM; for `CC(=O)N[C@@H](C)c1ccc(C2CCN(c3ccc(OCC4CCC4)cc3)CC2)cc1` [Example 9.29], 60 nM; for `CC(=O)N[C@@H](C)c1ccc(C2CCN(c3ccc(OCC4CCOCC4)cc3)CC2)cc1` [Example 9.30], 2300 nM.
For `CC(=O)N[C@@H](C)c1ccc(C2CCN(c3ccc(OCCOC4CC4)cc3)CC2)cc1` [Example 9.31] the value was 4800 nM; for `CC(=O)N[C@@H](C)c1ccc(C2CCN(c3ccc(OCC4CCCCO4)cc3)CC2)cc1` (stereo partly drawn) [Example 9.32], 990 nM; for `CCC(CC)Oc1ccc(N2CCC(c3ccc([C@H](C)NC(C)=O)cc3)CC2)cc1` [Example 9.33], 120 nM.
In the case of `CC(=O)N[C@@H](C)c1ccc(C2CCN(c3ccc(OCc4ccccc4)cc3)CC2)cc1` [Example 9.34], the IC50 came out at 150 nM.
For `CC(=O)N[C@@H](C)c1ccc(C2CCN(c3ccc(OC(C)c4ccccc4)cc3)CC2)cc1` (stereo partly drawn) [Example 9.35] the value was 210 nM; for `CC(=O)N[C@@H](C)c1ccc(C2CCN(c3ccc(OCC4CCC4)c(C#N)c3)CC2)cc1` [Example 9.36], 3300 nM.
With `CC(=O)N[C@@H](C)c1ccc(C2CCN(c3ccc(OCC4CCC4)c(C)c3)CC2)cc1` [Example 9.37] the figure was 690 nM; with `CC(=O)N[C@@H](C)c1ccc(C2CCN(c3ccc(OCC4CC4)c(C)c3)CC2)cc1` [Example 9.38], 410 nM.
With `CC(=O)N[C@@H](C)c1ccc(C2CCN(c3ccc(OCC4CC4)c(C#N)c3)CC2)cc1` [Example 9.40] the figure was 2900 nM.
Consider `CC(=O)N[C@@H](C)c1ccc(C2CCN(c3ccc(OCC4CC4)c(F)c3)CC2)cc1` [Example 9.41], for which the IC50 was 220 nM.
As to `CC(=O)N[C@@H](C)c1ccc(C2CCN(c3ccc(OCC4CCC4)c(F)c3)CC2)cc1` [Example 9.42], the IC50 was 160 nM.
Regarding `COc1cc(N2CCC(c3ccc([C@H](C)NC(C)=O)cc3)CC2)ccc1OCC1CCC1` [Example 9.43], the IC50 came to 430 nM.
For `COc1cc(N2CCC(c3ccc([C@H](C)NC(C)=O)cc3)CC2)ccc1OCC1CC1` [Example 9.44] the value was 480 nM; for `CC(=O)N[C@@H](C)c1ccc(C2CCN(c3ccc(OCC4CCC4)c(Cl)c3)CC2)cc1` [Example 9.45], 380 nM; for `CC(=O)N[C@@H](C)c1ccc(C2CCN(c3ccc(OCC4CC4)c(Cl)c3)CC2)cc1` [Example 9.46], 560 nM.
With `CC(=O)N[C@@H](C)c1ccc(C2CCN(c3ncc(-c4ccc(C#N)c(F)c4)cn3)CC2)cc1` [Example 10.1, (S)—N-[1-(4-{1-[5-(4-Cyano-3-fluorophenyl)-pyrimidin-2-yl]-piperidin-4-yl}-phenyl)ethyl]-acetamide] the figure was 50 nM; with `COc1ccc(-c2cnc(N3CCC(c4ccc([C@H](C)NC(C)=O)cc4)CC3)nc2)cn1` [Example 10.2], 200 nM.
With `COc1cccc(-c2cnc(N3CCC(c4ccc([C@H](C)NC(C)=O)cc4)CC3)nc2)c1` [Example 10.3] the figure was 130 nM; with `COc1ccccc1-c1cnc(N2CCC(c3ccc([C@H](C)NC(C)=O)cc3)CC2)nc1` [Example 10.4], 2000 nM; with `CCOc1ccc(-c2cnc(N3CCC(c4ccc([C@H](C)NC(C)=O)cc4)CC3)nc2)cc1` [Example 10.5], 540 nM.
Regarding `CCc1ccc(-c2cnc(N3CCC(c4ccc([C@H](C)NC(C)=O)cc4)CC3)nc2)cc1` [Example 10.6], the IC50 was found to be 100 nM.
For `CC(=O)N[C@@H](C)c1ccc(C2CCN(c3ncc(-c4cccc(C)c4)cn3)CC2)cc1` [Example 10.7] the value was 40 nM; for `CC(=O)N[C@@H](C)c1ccc(C2CCN(c3ncc(-c4ccccc4C)cn3)CC2)cc1` [Example 10.8], 200 nM.
Regarding `CC(=O)N[C@@H](C)c1ccc(C2CCN(c3ncc(-c4ccc(F)cc4)cn3)CC2)cc1` [Example 10.9], the IC50 turned out to be 20 nM.
With `CC(=O)N[C@@H](C)c1ccc(C2CCN(c3ncc(-c4ccc(C#N)cc4)cn3)CC2)cc1` [Example 10.10] the figure was 70 nM; with `CC(=O)N[C@@H](C)c1ccc(C2CCN(c3ncc(-c4ccc(C(C)C)cc4)cn3)CC2)cc1` [Example 10.11], 5800 nM.
For `CC(=O)N[C@@H](C)c1ccc(C2CCN(c3ncc(-c4cccnc4)cn3)CC2)cc1` [Example 10.12] the value was 360 nM.
For `CC(=O)N[C@@H](C)c1ccc(C2CCN(c3ncc(-c4ccccc4F)cn3)CC2)cc1` [Example 10.13] the value was 90 nM.
Regarding `CC(=O)N[C@@H](C)c1ccc(C2CCN(c3ncc(-c4cc5ccccc5o4)cn3)CC2)cc1` [Example 10.14], the IC50 stood at 100 nM.
For `CC(=O)N[C@@H](C)c1ccc(C2CCN(c3ncc(-c4ccc(OC(F)(F)F)cc4)cn3)CC2)cc1` [Example 10.15] the value was 550 nM; for `CC(=O)N[C@@H](C)c1ccc(C2CCN(c3ncc(-c4ccncc4)cn3)CC2)cc1` [Example 10.16], 710 nM; for `CC(=O)N[C@@H](C)c1ccc(C2CCN(c3ncc(-c4ccc(CC#N)cc4)cn3)CC2)cc1` [Example 10.18], 180 nM.
Turning to `CC(=O)N[C@@H](C)c1ccc(C2CCN(c3ncc(-c4c(C)noc4C)cn3)CC2)cc1` [Example 10.20], the IC50 amounted to 2700 nM.
With `CC(=O)N[C@@H](C)c1ccc(C2CCN(c3ncc(-c4cnc5ccccc5c4)cn3)CC2)cc1` [Example 10.21] the figure was 70 nM; with `COc1ncc(-c2cnc(N3CCC(c4ccc([C@H](C)NC(C)=O)cc4)CC3)nc2)cn1` [Example 10.22], 1100 nM; with `CC(=O)N[C@@H](C)c1ccc(C2CCN(c3ncc(-c4ccc5c(c4)OCCO5)cn3)CC2)cc1` [Example 10.23], 290 nM.
With `CC(=O)N[C@@H](C)c1ccc(C2CCN(c3ncc(-c4ccc5c(c4)CCO5)cn3)CC2)cc1` [Example 10.24] the figure was 70 nM; with `CC(=O)N[C@@H](C)c1ccc(C2CCN(c3ncc(-c4ccc5c(ccn5C)c4)cn3)CC2)cc1` [Example 10.25], 320 nM.
For `CC(=O)N[C@@H](C)c1ccc(C2CCN(c3ncc(-c4ccc5c(c4)OCCCO5)cn3)CC2)cc1` [Example 10.26] the value was 410 nM; for `CC(=O)N[C@@H](C)c1ccc(C2CCN(c3ncc(-c4ccc(OC(C)C)cc4)cn3)CC2)cc1` [Example 10.27], 970 nM; for `COc1cc(-c2cnc(N3CCC(c4ccc([C@H](C)NC(C)=O)cc4)CC3)nc2)ccn1` [Example 10.29], 130 nM.
Take `COc1ccc(-c2cnc(N3CCC(c4ccc([C@H](C)NC(C)=O)cc4)CC3)nc2)cc1C` [Example 10.30]: the IC50 was 130 nM.
For `CSc1ccc(-c2cnc(N3CCC(c4ccc([C@H](C)NC(C)=O)cc4)CC3)nc2)cc1` [Example 10.31] the value was 180 nM; for `COCc1ccc(-c2cnc(N3CCC(c4ccc([C@H](C)NC(C)=O)cc4)CC3)nc2)cc1` [Example 10.32], 410 nM; for `CC(=O)N[C@@H](C)c1ccc(C2CCN(c3ncc(-c4ccc(C)nc4)cn3)CC2)cc1` [Example 10.33], 640 nM.
As to `COc1cc(OC)cc(-c2cnc(N3CCC(c4ccc([C@H](C)NC(C)=O)cc4)CC3)nc2)c1` [Example 10.34], the IC50 turned out to be 210 nM.
As for `COc1ccc(-c2cnc(N3CCC(c4ccc([C@H](C)NC(C)=O)cc4)CC3)nc2)cc1OC` [Example 10.35], the IC50 was determined as 1100 nM.
For `COc1ccc(-c2cnc(N3CCC(c4ccc([C@H](C)NC(C)=O)cc4)CC3)nc2)c(C(F)(F)F)c1` [Example 10.36] the value was 210 nM; for `COc1ccc(-c2cnc(N3CCC(c4ccc([C@H](C)NC(C)=O)cc4)CC3)nc2)c(F)c1` [Example 10.37], 190 nM; for `CCOc1ccc(-c2cnc(N3CCC(c4ccc([C@H](C)NC(C)=O)cc4)CC3)nc2)cn1` [Example 10.38], 3000 nM.
With `COc1ccc2cc(-c3cnc(N4CCC(c5ccc([C@H](C)NC(C)=O)cc5)CC4)nc3)ccc2c1` [Example 10.40] the figure was 6900 nM; with `CC(=O)N[C@@H](C)c1ccc(C2CCN(c3ncc(-c4ccc(C5CC5)cc4)cn3)CC2)cc1` [Example 10.41], 1900 nM.

In general, IC50 refers to the concentration that gives 50% inhibition.
